melting point [°C]	SMILES
98 to 99	CCc1nn2c(-c3ccc(Cl)cc3Cl)nc(C)nc2c1N(CC)CC [compound 3, 4-(2,4-dichlorophenyl)-8-diethylamino-7-ethyl-2-methyl-pyrazolo[1,5-a]-1,3,5-triazine]
91 to 93	CCc1nn2c(-c3ccc(Cl)cc3Cl)nc(C)nc2c1C(CC)CC [compound 1, 4-(2,4-dichlorophenyl)-8-(3-pentyl)-7-ethyl-2-methyl-pyrazolo[1,5-a]-1,3,5-triazine]

Reference: patent US7026317B2, “Pyrazolotriazines as CRF antagonists” (Bristol-Myers Squibb Pharma Company, priority 1999, dated 2006)
